Data reported in US6737425B1, “N,N-substituted cyclic amine derivatives” (Eisai Co., Ltd., priority 1998, dated 2004).
“And” between values parts separate entries of the source, which are not always exact repeats. Equal values may be shown once.

Test system: rat model with occlusion in the middle cerebral artery
Experiment: Effect (II) of reducing infarct volume in a rat model with occlusion in the middle cerebral artery (permanent occlusion)
Type: in vivo
Details: for Infarct volume in the cerebral cortex, Mean: from two hours after occlusion, 6 hours, 24 hours after occlusion
Protocol: Effect (II) of Reducing Infarct volume in a Rat Model with Occlusion in the Middle Cerebral Artery
The typical example of the compound of the present invention (the compound in Example 1) was compared with compounds disclosed in JP 8-508037-A (WO 94/25469, U.S. Pat. No. 5,750,525), which have affinity for AMPA receptors and is effective against cellular necrosis after ischemia in anoxia and hypocalcemia.
The compound of the present invention was dissolved in physiological saline to be adjusted to a dosage of 10 or 20 mg/kg/h just before use.
The control compound was dissolved in physiological saline to be adjusted to a dosage of 3 mg/kg/h just before use.
Occlusion in the middle cerebral artery was conducted according to the method described above. However, the middle cerebral artery was permanently occluded without removing the nylon embolus.
Two hours after the middle cerebral artery was occluded, a syringe containing the medium or the sample (10 or 20 mg/kg/h) was attached to a catheter for intravenous administration, and half (0.31 ml) of the dosage to be infused for 1 hour was intravenously administered for 1 minute. Thereafter, the medium or the sample was administered continuously for 6 hours at a rate of 0.616 ml/h by the use of a syringe pump for infusion. During administration and for 2 hours after administration was finished, the temperature of the rectum was maintained in the range of 37.0 to 38.5° C. in a system for controlling body temperature. After the body temperature control was finished, the animal was returned to a cage and maintained for 1 day in a breeding room.
Two hours after the middle cerebral artery was occluded, a syringe containing the medium or the sample (3 mg/kg/h) was attached to a catheter for intravenous administration, and the medium or the sample was administered continuously for 6 hours at a rate of 0.616 ml/h by means of the syringe pump for infusion. During administration and for 2 hours after administration was finished, the temperature of the rectum was maintained in the range of 37.0 to 38.5° C. in the system for controlling body temperature. After the body temperature control was finished, the animal was returned to a cage and maintained for 1 day in a breeding room.
The middle cerebral artery was permanently occluded by the nylon embolus, and the infarct volume was measured 24 hours after the occlusion was conducted.

SMILES: CC(C)C(C#N)(CCCN1CCN(CCOc2ccc(F)cc2)CC1)c1ccccc1 (stereo not shown) [Example 1, 1-[(4-Cyano-5-methyl-4-phenyl)hexyl]-4-[2-(4-fluorophenoxy)ethyl]piperazine]
- degree of reduction of the infarct volume (10 mg/kg/h i.v.): 15%
- Infarct volume in the cerebral cortex, Mean (10 mg/kg/h i.v. (table: 10 mg/kg)): 260.7±13.1 mm^3 and 260.7 mm^3
- degree of reduction of the infarct volume (20 mg/kg/h i.v.): 30%
- Infarct volume in the cerebral cortex, Mean (20 mg/kg/h i.v. (table: 20 mg/kg)): 215.4±21.3 mm^3 and 215.4 mm^3
